Laboratory results from ChEMBL document CHEMBL3046357, “Inhibitors of biotin biosynthesis as potential herbicides” (2004).

Test system: Arabidopsis thaliana
Assay: Herbicidal activity against Arabidopsis thaliana after 3 weeks
Assay type: functional

SMILES: COC(=O)CCCCCC(=O)C(N)CS.Cl (stereo not given)
- GR50: 120 ppm

SMILES: Cl.NC(CO)C(=O)CCCCCC(=O)O (stereo not given)
- GR50: 100 ppm

SMILES: COC(=O)CCCCCC(=O)C(N)CO.Cl (stereo not given)
- GR50: 53 ppm

SMILES: CC(O)C(N)C(=O)CCCCCC(=O)O.Cl (stereo not given)
- GR50: 250 ppm

SMILES: COC(=O)CCCCCC(=O)C(N)C(C)O.Cl (stereo not given)
- GR50: 100 ppm

SMILES: COC(=O)CCCCC/C(CN)=N\O.Cl
- GR50: 53 ppm

SMILES: Cl.NC/C(CCCCCC(=O)O)=N/O
- GR50: 40 ppm

SMILES: CCC(N)/C(CCCCCC(=O)O)=N/O.Cl (stereo not given)
- GR50: >780 ppm

SMILES: CC(C)C(N)/C(CCCCCC(=O)O)=N/O.Cl (stereo not given)
- GR50: >780 ppm

SMILES: Cl.Cl.NCC(N)CCCCCC(=O)O (stereo not given)
- GR50: 53 ppm

SMILES: CCC(N)C(N)CCCCCC(=O)O.Cl.Cl (stereo not given)
- GR50: 76 ppm

SMILES: CSCCC(N)C(N)CCCCCC(=O)O.Cl.Cl (stereo not given)
- GR50: 0.78 ppm

SMILES: CCC1NC(=O)NC1CCCCCC(=O)O (stereo not given)
- GR50: 35 ppm

SMILES: CSCCC1NC(=O)NC1CCCCCC(=O)O (stereo not given)
- GR50: >780 ppm

SMILES: CSCC1NC(=O)NC1CCCCCC(=O)O (stereo not given)
- GR50: 46 ppm

SMILES: COC(=O)CCCCCC1NC(=S)NC1CCSC (stereo not given)
- GR50: >780 ppm

SMILES: COC(=O)CCCCCC1NC(=S)NC1CSC (stereo not given)
- GR50: 44 ppm

SMILES: Cl.NCC(=O)CCCCCC(=O)O
- GR50: 8 ppm

SMILES: CCC(N)C(=O)CCCCCC(=O)O.Cl (stereo not given)
- GR50: 43 ppm

SMILES: CC(C)C(N)C(=O)CCCCCC(=O)O.Cl (stereo not given)
- GR50: 37 ppm

SMILES: CSCCC(N)C(=O)CCCCCC(=O)O.Cl (stereo not given)
- GR50: >780 ppm

SMILES: CSCC(N)C(=O)CCCCCC(=O)O.Cl (stereo not given)
- GR50: >780 ppm

SMILES: COC(=O)CCCCCC(=O)C(N)CSC.Cl (stereo not given)
- GR50: 250 ppm

SMILES: Cl.NC(CS)C(=O)CCCCCC(=O)O (stereo not given)
- GR50: >780 ppm

SMILES: O=C(O)CCCCCC1CNC(=O)N1 (racemic)
- GR50: 35 ppm
